Patent publication US20110230367A1, “Amphiphilic Peptides Promoting Production of Target miRNA and Method of Regulating Production of Target miRNA” (SNU R&DB FOUNDATION, priority 2009, published 2011)
pKd: −log10 of the molar value. Where two headings read alike, the source gives them in different places.

Tests used:
pre-let7a-1 = test: Dissociation constant by competitive fluorescence anisotropy with rhodamine-rev peptide probe; type: binding; conditions: for Discrimination ratio pre-let7a-1 (in parenthesis): Kd against other RNA (HBV, IRES, other miRNAs)/Kd against target miRNA
Experimental: (§1) The binding affinity between the peptide synthesized in <Example 1> and pre-miRNA from <Example 2> were measured by fluorescence anisotropy using competitive binding method. A rev peptide with rhodamine attached at the N-terminal was used as a fluorescent probe and LS-55 luminescence spectrometer from Perkin-Elmer was use for analysis. A constant temperature of 20° C. was maintained by a water bath. The fluorescent intensity was measured by of 200 nM of rhodamine-rev peptide was measured with an excitation wavelength at 550 nm (band path 10 nm) and detection at 580 nm (band path 10 nm). The integration time […]. Each experimental value is the mean value of 5 measurements. A 20 mM of HEPES{4-(2-hydroxyethyl)-1-piperazineethanesulfonic acid} buffer (pH 7.5) containing 140 mM NaCl, 5 mM KCl and 1 mM MgCl2 was used for measuring the dissociation constant. The dissociation constant was determined according to the Mathematical Formula 1 and using Kaledia graph.
(§2) A and Ao are the fluorescence anistropy in the presence or absence of RNA, whereas ΔA is the difference between these two values. [RNA]0 and [Rh-rev]0 are initial concentrations of RNA and rev peptide binding with rhodamine.
(§3) According the method described in <Example 3>, the dissociation constant between second generation peptide and 2 pre-miRNAs synthesized from <Example 2> was determined using fluorescent polarization detection method and fluorescent probe molecule.

pre-miR16-1 = test: as above; type: binding; conditions: for Discrimination ratio pre-miR16-1 (in parenthesis): Kd against other RNA/Kd against target miRNA
Experimental: as §1, §2, §3

HBV (hairpin RNA) = test: as above; type: binding; conditions: Table 6
Experimental: as §1, §2, §3

IRES (hairpin RNA) = test: as above; type: binding; conditions: Table 6
Experimental: as §1, §2, §3

pre-miR24-1 = test: as above; type: binding; conditions: for pKd / Discrimination ratio pre-miR24-1 (in parenthesis): Table 6; for Discrimination ratio pre-miR24-1 (in parenthesis): Kd against other RNA/Kd against target miRNA
Experimental: as §1, §2, §3

[1] = test system: recombinant human Dicer processing pre-let7a-1; test: Dicer activity assay in the presence of peptide, substrate pre-let7a-1; type: biochemical; conditions: 400 nM peptide, pre-let7a-1 substrate, FIG. 2
Experimental: Two types of pre-miRNA (pre-let7a-1, pre-miR16-1) used as the substrate for the Dicer enzyme activity assay was ordered and manufactured by ST Pharm Co., Ltd (FIG. 1). For Dicer activity assay, the 5′ end of the synthesized pre-miRNA was labeled with ^32p isotope. Two pmole of each pre-miRNA was isotope labeled with […] of [g-^32P]ATP (New England Biolabs) using 10 units of T4 polynucleotide kinase (New England Biolabs). Total volume of 10 μl was isotope labeled for 1 hr at 37° C. The isotope labeled RNA obtained after the reaction was purified using G-25 Sephadex column (Sigma). The purified substrate was used for measuring Dicer enzyme activity. Total reaction mixture of 30 μl containing 1 nM of isotope labeled pre-miRNA and 0.001 u/μl of recombinant human Dicer (Genlantis, CA, USA) were incubated at 37° C. in 24 mM 4-(2-hydroxyethyl)-1-piperazineethanesulfonic acid, HEPES) buffer system containing 200 mM NaCl, 0.04 mM EDTA, 1 mM ATP and 2.5 mM MgCl2(pH 8.0). After reacting for 0, 10, 30, […], 3 μl of each reaction mixture was mixed with 5 μl of RNA gel loading buffer {95% formamide, 10 mM ethylenediaminetetraacetic acid (EDTA), 0.05% FF (xylene cyanol FF)} and incubated for 5 min at 65° C. The amount of the reaction product was determined by gel running in 15% polyacrylamide gel containing 7M urea, and then the initial reaction velocity (V0) from each reaction was compared. The initial reaction velocity (V0) of the enzyme is the reaction velocity of the initial linear time (until 30 min). Each initial velocity was normalized with the initial velocity from each substrate condition without peptide treatment. The initial reaction velocity of Dicer for pre-let7a-1 and pre-miR16-1 without peptide treatment were […] and 0.018 fmole/min, respectively. Each of the initial reaction velocity is a mean data of more than 3 measurements, and the standard deviation is shown as error bars.

[2] = test system: recombinant human Dicer processing pre-miR16-1; test: Dicer activity assay in the presence of peptide, substrate pre-miR16-1; type: biochemical; conditions: 400 nM peptide, pre-miR16-1 substrate, FIG. 2
Experimental: Two types of pre-miRNA (pre-let7a-1, pre-miR16-1) used as the substrate for the Dicer enzyme activity assay was ordered and manufactured by ST Pharm Co., Ltd (FIG. 1). For Dicer activity assay, the 5′ end of the synthesized pre-miRNA was labeled with ^32p isotope. Two pmole of each pre-miRNA was isotope labeled with […] of [g-^32P]ATP (New England Biolabs) using 10 units of T4 polynucleotide kinase (New England Biolabs). Total volume of 10 μl was isotope labeled for 1 hr at 37° C. The isotope labeled RNA obtained after the reaction was purified using G-25 Sephadex column (Sigma). The purified substrate was used for measuring Dicer enzyme activity. Total reaction mixture of 30 μl containing 1 nM of isotope labeled pre-miRNA and 0.001 u/μl of recombinant human Dicer (Genlantis, CA, USA) were incubated at 37° C. in 24 mM 4-(2-hydroxyethyl)-1-piperazineethanesulfonic acid, HEPES) buffer system containing 200 mM NaCl, 0.04 mM EDTA, 1 mM ATP and 2.5 mM MgCl2(pH 8.0). After reacting for 0, 10, 30, 60 or 120 min in the presence of 400 nM concentration of 2b or 2c peptide, 3 μl of each reaction mixture was mixed with 5 μl of RNA gel loading buffer {95% formamide, 10 mM ethylenediaminetetraacetic acid (EDTA), 0.05% FF (xylene cyanol FF)} and incubated for 5 min at 65° C. The amount of the reaction product was determined by gel running in 15% polyacrylamide gel containing 7M urea, and then the initial reaction velocity (V0) from each reaction was compared. The initial reaction velocity (V0) of the enzyme is the reaction velocity of the initial linear time (until 30 min). Each initial velocity was normalized with the initial velocity from each substrate condition without peptide treatment. The initial reaction velocity of Dicer for pre-let7a-1 and pre-miR16-1 without peptide treatment were […] and 0.018 fmole/min, respectively. Each of the initial reaction velocity is a mean data of more than 3 measurements, and the standard deviation is shown as error bars.

[3] = Table 3, first generation peptides, 20° C., HEPES pH 7.5, read-out: Kd value with pre-let7a-1
[4] = Table 3, first generation peptides, 20° C., HEPES pH 7.5, read-out: Kd value with pre-miR16-1
[5] = Table 5, second generation peptides, read-out: Kd value against pre-let7a-1
[6] = Table 6, read-out: Kd pre-let7a-1
[7] = Table 5, second generation peptides, read-out: Kd value against pre-miR16-1
[8] = Table 6, read-out: Kd pre-miR16-1

Sequence	pKd (pre-let7a-1; [3])	pKd (pre-miR16-1; [4])	pKd (HBV (hairpin RNA))	pKd (IRES (hairpin RNA))	pKd (pre-let7a-1; [5])	Discrimination ratio pre-let7a-1 (in parenthesis) (pre-let7a-1; Table 6)	pKd (pre-let7a-1; [6])	pKd (pre-miR16-1; [7])	Discrimination ratio pre-miR16-1 (in parenthesis) (pre-miR16-1; Table 6)	pKd (pre-miR16-1; [8])	pKd (pre-miR24-1)	Discrimination ratio pre-miR24-1 (in parenthesis) (pre-miR24-1)	further results
LKKLWKLLKKLLKLAG [Peptide 1c, Ac-LKKLWKLLKKLLKLAG]	9.39	9.25	–	–	–	–	–	–	–	–	–	–	–
WKKLWKLLKKLLKLAG [Peptide 2a, Ac-WKKLWKLLKKLLKLAG, 12]	–	–	9.11	9.05	9.64	2.8	9.64	9.49	2.6	9.49	9.09	0.66	–
WKKLLKLLKKLLKWAG [Peptide 2e, Ac-WKKLLKLLKKLLKWAG, 16]	–	–	9.47	9.12	9.66	1.7	9.05	9.55	2.3	9.55	9.08	0.50	discrimination ratio for pre-miR16-1 (pre-miR16-1; against other RNAs): 2.3
LKKLLKLLKKWLKWAG [Peptide 2i, Ac-LKKLLKLLKKWLKWAG, 20]	–	–	9.09	8.92	9.51	4.4	9.51	9.33	1.6	9.33	9.28	1.2	–
LKKWLKLLKKLLKLAG [Peptide 1b, Ac-LKKWLKLLKKLLKLAG]	9.17	8.92	–	–	–	–	–	–	–	–	–	–	–
WKKLLKLLKKLWKLAG [Peptide 2d, Ac-WKKLLKLLKKLWKLAG, 15]	–	–	9.10	9.11	9.60	1.2	9.66	9.19	1.2	9.19	9.17	1.0	–
LKKLLKLLKKLWKLAG [Peptide 1g, Ac-LKKLLKLLKKLWKLAG]	9.60	9.25	–	–	–	–	–	–	–	–	–	–	–
LKKLLKWLKKLLKWAG [Peptide 2g, Ac-LKKLLKWLKKLLKWAG, 18]	–	–	9.00	8.89	9.02	0.85	9.02	8.96	0.99	8.96	9.33	2.3	discrimination ratio for pre-miR24-1 (pre-miR24-1): 2.3
WKKLLKLLKKLLKLAG [Peptide 1a, Ac-WKKLLKLLKKLLKLAG]	9.77	9.38	–	–	–	–	–	–	–	–	–	–	binding with pre-let7a-1 (pre-let7a-1): significant increase in binding affinity; binding with pre-miR16-1 (pre-miR16-1): significant increase in binding affinity
LKKLLKLLKKWLKLAG [Peptide 1f, Ac-LKKLLKLLKKWLKLAG]	9.49	9.32	–	–	–	–	–	–	–	–	–	–	–
LKKLLKLLKKLWKWAG [Peptide 2j, Ac-LKKLLKLLKKLWKWAG, 21]	–	–	9.46	9.07	9.43	1.0	9.43	9.36	1.4	9.36	9.57	1.9	–
LKKLLKLLKKLLKWAG [Peptide 1h, Ac-LKKLLKLLKKLLKWAG]	9.96	9.40	–	–	–	–	–	–	–	–	–	–	binding with pre-let7a-1 (pre-let7a-1): significant increase in binding affinity; increase in binding affinity compared to the peptide with no tryptophan substitution (peptide 1) (pre-let7a-1; pre-miRNA not named, values fit pre-let7a-1): 150 times; binding with pre-miR16-1 (pre-miR16-1): significant increase in binding affinity
LKKLLKLWKKLLKLAG [Peptide 1e, Ac-LKKLLKLWKKLLKLAG]	7.70	7.57	–	–	–	–	–	–	–	–	–	–	initial reaction velocity (V0) of Dicer, normalized to no peptide [1]: did not increase; initial reaction velocity (V0) of Dicer, normalized to no peptide [2]: did not increase
LKKLLKLLKKLLKLAG [Peptide 1, Ac-LKKLLKLLKKLLKLAG]	7.77	7.92	–	–	7.77	–	–	7.92	–	–	–	–	–
LKKLLKWLKKLLKLAG [Peptide 1d, Ac-LKKLLKWLKKLLKLAG]	9.19	8.74	–	–	–	–	–	–	–	–	–	–	–
LKKLWKLLKKLLKWAG [Peptide 2f, Ac-LKKLWKLLKKLLKWAG, 17]	–	–	9.42	8.42	9.05	9.3	9.02	8.68	1.2	8.68	8.66	0.66	–
LKKLLKLLKKWWKLAG [Peptide 2h, Ac-LKKLLKLLKKWWKLAG, 19]	–	–	8.24	8.77	8.82	1.8	8.82	8.59	1.0	8.59	8.82	1.9	–
